Laboratory results as given in US20060223868A1, “Heterocyclic amides exhibiting and inhibitory activity at the vanilloid receptor 1(vr1)” (AstraZeneca AB, priority 2003, published 2006).

Molecular target: T1, hVR1 (Homo sapiens, UniProt Q8NER1)
T1 construct: expressed in transfected cells
Experiment: hVR1 FLIPR (Fluorometric Image Plate Reader) screening assay, IC50 determination
Type: cell-based
Conditions: transfected CHO cells stably expressing hVR1
Description: 1. hVR1 FLIPR (Fluorometric Image Plate Reader) Screening Assay
Transfected CHO cells, stably expessing hVR1 (15,000 cells/well) are seeded in 50 ul media in a black clear bottom 384 plate (Greiner) and grown in a humidified incubator (37° C., 2% CO2), 24-30 hours prior to experiment.
Subsequently, the media is removed from the cell plate by inversion and 2 μM Fluo-4 is added using a multidrop (Labsystems). Following the 40 minutes dye incubation in the dark at 37° C. and 2% CO2, the extracellular dye present is washed away using an EMBLA (Scatron), leaving the cells in 40 ul of assay buffer (1×HBSS, 10 mM D-Glucose, 1 mM CaCl2, 10 mM HEPES, 10×7.5% NaHCO3 and 2.5 mM Probenecid).
FLIPR Assay—IC50 Determination Protocol
For IC50 determinations the fluorescence is read using FLIPR filter 1 (em […]). A cellular baseline recording is taken for 30 seconds, followed by a 20 μl addition of 10, titrated half-log concentrations of the test compound, yielding cellular concentration ranging from 3 μM to 0.1 nM. Data is collected every 2 seconds for a further 5 minutes prior to the addition of a VR1 agonist solution: either 50 nM solution of capsaicin or MES (2-[N-morpholino) ethanesulfonic acid) buffer (pH 5.2), by the FLIPR pipettor. The FLIPR continues to collect data for a further 4 minutes. Compounds having antagonistic properties against the hVR1 will inhibit the increase in intracellular calcium in response to the capsaicin addition. This consequently leading to a reduction in fluorescence signal and providing a reduced fluorescence reading, compared with no compound, buffer controls. Data is exported by the FLIPR program as a sum of fluorescence calculated under the curve upon the addition of capsaicin. Maximum inhibition, Hill slope and IC50 data for each compound are generated.

T1 sequence (Q8NER1 whole entry): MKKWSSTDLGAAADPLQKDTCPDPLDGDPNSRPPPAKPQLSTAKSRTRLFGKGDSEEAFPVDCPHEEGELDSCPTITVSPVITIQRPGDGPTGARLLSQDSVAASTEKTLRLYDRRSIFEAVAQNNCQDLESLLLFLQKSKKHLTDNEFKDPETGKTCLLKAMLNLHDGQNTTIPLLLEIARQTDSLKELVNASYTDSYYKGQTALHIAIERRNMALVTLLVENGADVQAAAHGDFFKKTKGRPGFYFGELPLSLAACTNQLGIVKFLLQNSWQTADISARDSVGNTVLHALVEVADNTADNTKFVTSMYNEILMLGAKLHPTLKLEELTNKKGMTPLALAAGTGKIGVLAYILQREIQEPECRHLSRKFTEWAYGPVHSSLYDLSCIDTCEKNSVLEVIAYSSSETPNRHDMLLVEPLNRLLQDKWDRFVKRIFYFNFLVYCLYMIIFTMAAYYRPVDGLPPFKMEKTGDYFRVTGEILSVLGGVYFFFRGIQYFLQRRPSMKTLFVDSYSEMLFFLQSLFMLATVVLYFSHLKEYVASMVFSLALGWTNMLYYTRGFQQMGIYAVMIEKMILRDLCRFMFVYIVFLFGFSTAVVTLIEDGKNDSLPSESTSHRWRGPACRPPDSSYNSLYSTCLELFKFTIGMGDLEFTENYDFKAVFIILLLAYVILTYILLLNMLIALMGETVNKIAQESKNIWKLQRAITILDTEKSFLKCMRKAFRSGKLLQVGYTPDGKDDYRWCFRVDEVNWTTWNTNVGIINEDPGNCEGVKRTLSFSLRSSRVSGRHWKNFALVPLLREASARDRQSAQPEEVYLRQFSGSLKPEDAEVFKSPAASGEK

IC50 (agonist H+/MES buffer (pH 5.2)) [nM]	IC50 (agonist capsaicin) [nM]	SMILES
60	10	O=C(Nc1ccc2sc(CO)nc2c1)c1ccc(Br)cc1 [Example 2, 4-Bromo-N-[2-(hydroxymethyl)-1,3-benzothiazol-5-yl]benzamide]
45	50	CC(C)Oc1ccc(C(=O)Nc2ccc3sc(CO)nc3c2)cc1 [Example 19, N-[2-(Hydroxymethyl)-1,3-benzothiazol-5-yl]-4-isopropoxybenzamide]
	200	CC(O)c1nc2cc(NC(=O)c3ccc(C(C)(C)C)cc3)ccc2s1 (centres unmarked) [Example 71, 4-tert-Butyl-N-[2-(1-hydroxyethyl)-1,3-benzothiazol-5-yl]benzamide]
